These results are taken from publication PMC8705986, “A Novel Angiotensin-I-Converting Enzyme (ACE) Inhibitory Peptide from Takifugu flavidus” (Marine Drugs, 2021).

Test [1] has as its system ACE. To be noted: cited from earlier work; for ACE-inhibitory activity, in words: shark meat hydrolysates, ref [16] Hao Wu et al. The source says: (§1) Marine organisms, which are rich in unique bioactive proteins, have been widely used in the search for ACE-inhibitory peptides. According to previous studies, many novel ACE-inhibitory peptides with efficient antihypertensive effects were obtained from marine organisms. […] Liu et al. investigated the antihypertensive activity of a protein hydrolysate that was made from Rhopilema esc ...

The subject of test [2] is SHRs. To be noted: oral administration in SHRs; ref [17] Lee et al.; cited from earlier work.
Source text: as §1

In test [3] the test system is spontaneously hypertensive rats (SHRs). Kind of test: Antihypertensive effect in SHRs, intravenous, tail-cuff SBP/DBP. The test is classed as in vivo. To be noted: 5 mg/kg intravenous single dose. On the procedure:
Animals were obtained from Vital River Laboratory Animal Technology (Beijing, China), who also performed the blood pressure measurements in spontaneously hypertensive rats (SHRs) with a tail systolic blood pressure (SBP) of over 180 mmHg. Animals were fed a normal diet, and tap water was freely available. SHRs (11 weeks, 240 ± 20 g body weight) were raised at room temperature (25 °C) under a 12 h light/dark cycle. […] Captopril (5 mg/kg) was used as a positive control, and the negative control group was injected with an equal volume of saline. The SBP and DBP of the rats were measured using the tail-cuff method before administration and at 2, 4, 6, 12, and 24 h post-administration, using a BP-98A blood pressure monitor (Softron Biotechnology, Beijing, China) after heating the SHRs at 37 °C for 30 min in a warming chamber. All the rats received humane care conforming to the National Institutes of Health Guide for Care and Use of Laboratory Animals. This study was approved by the Ethics Committee of Guangdong medical laboratory animal center (No. 20211001).
Statistical analysis was performed using SPSS 19.0 software ([…]). Experimental data are presented as means ± standard deviations (SD) and were statistically evaluated using one-way analysis of variance (ANOVA) with Duncan’s test. Origin 9.0 (OriginLab, Northampton, MA, USA) software was used to process the data.

For test [4], the target named is T1, angiotensin-I-converting enzyme (ACE, EC 3.4.15.1, from rabbit lung) (rabbit) (UniProt P12822).
T1 sequence: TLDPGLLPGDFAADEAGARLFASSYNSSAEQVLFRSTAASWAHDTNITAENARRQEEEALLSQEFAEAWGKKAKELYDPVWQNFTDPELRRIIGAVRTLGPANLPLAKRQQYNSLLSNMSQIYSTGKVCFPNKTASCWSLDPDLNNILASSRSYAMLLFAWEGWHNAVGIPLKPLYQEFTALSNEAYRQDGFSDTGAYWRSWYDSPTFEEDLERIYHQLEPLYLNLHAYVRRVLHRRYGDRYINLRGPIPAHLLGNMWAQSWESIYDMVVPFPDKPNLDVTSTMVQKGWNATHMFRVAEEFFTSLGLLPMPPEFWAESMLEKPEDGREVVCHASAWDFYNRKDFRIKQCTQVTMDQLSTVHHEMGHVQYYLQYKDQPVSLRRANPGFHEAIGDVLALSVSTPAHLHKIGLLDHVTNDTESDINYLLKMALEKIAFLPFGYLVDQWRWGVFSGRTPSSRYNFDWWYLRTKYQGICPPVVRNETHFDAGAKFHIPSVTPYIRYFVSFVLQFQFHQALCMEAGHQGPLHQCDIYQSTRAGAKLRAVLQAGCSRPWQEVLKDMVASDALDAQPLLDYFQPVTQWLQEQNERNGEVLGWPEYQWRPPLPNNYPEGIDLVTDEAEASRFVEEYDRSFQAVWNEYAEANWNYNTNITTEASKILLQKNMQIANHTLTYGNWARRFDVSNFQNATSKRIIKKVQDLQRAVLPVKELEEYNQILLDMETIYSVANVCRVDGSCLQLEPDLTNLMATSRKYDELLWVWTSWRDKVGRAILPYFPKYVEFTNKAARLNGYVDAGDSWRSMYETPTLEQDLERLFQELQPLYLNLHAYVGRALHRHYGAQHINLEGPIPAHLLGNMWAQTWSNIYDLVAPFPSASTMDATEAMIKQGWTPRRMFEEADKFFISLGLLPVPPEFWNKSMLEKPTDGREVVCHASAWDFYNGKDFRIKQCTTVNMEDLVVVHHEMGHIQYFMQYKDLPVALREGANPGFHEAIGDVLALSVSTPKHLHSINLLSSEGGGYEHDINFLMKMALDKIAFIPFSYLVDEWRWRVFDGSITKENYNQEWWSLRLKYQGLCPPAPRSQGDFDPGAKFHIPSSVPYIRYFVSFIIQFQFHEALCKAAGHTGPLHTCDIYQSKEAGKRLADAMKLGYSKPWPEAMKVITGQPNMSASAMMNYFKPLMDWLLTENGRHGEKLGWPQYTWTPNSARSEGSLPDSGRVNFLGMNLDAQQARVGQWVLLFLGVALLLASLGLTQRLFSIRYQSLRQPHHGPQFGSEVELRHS

Where [5] appears, read: ref [14] Ghassem et al., read-out: IC50, ACE-inhibitory peptides from snakehead fish.

Like-named read-outs stand apart in the source and are kept apart here.

As for LYPPP, the IC50 in test [1] (setting [5]) was 1300 nM.
Consider Cys-Phe, for which the “ACE-inhibitory activity, in words” value in test [1] is listed as “high ACE-inhibitory activity”.
“Gly-Asp-Leu-Gly-Lys-Thr-Thr-Thr-Val-Ser-Asn-Trp-Ser-Pro-Pro-Lys-Try-Lys-Asp-Thr-Pro [PTFP]”: the “antihypertensive effect, in words” value in test [2] is on record as “has an antihypertensive effect after oral administration in SHRs”. Moreover, the “ACE inhibition mode, tuna frame peptide” value in test [1] (ref [17] Lee et al.) was “non-competitive inhibitor”. Further, in test [1] (ref [17] Lee et al., read-out: IC50, ACE-inhibitory peptide from tuna frame protein), the IC50 was 11300 nM.
YSMYPP: the IC50 in test [1] (setting [5]) is 2800 nM.
In the case of Phe-Glu, the “ACE-inhibitory activity, in words” value in test [1] is “high ACE-inhibitory activity”.
Met-Phe: the “ACE-inhibitory activity, in words” value in test [1] is given as “high ACE-inhibitory activity”.
Take Glu-Tyr: the “ACE-inhibitory activity, in words” value in test [1] is recorded as “high ACE-inhibitory activity”.
On to `C[C@H](CS)C(=O)N1CCC[C@H]1C(=O)O` [Captopril, captopril], for which, in test [3] (4 h, p < 0.05), the “systolic blood pressure (SBP) at 4 h” value amounted to 151 mmHg. Further, the “systolic blood pressure (SBP) at 24 h” value in test [3] (24 h) stood at 161 mmHg. Further, the “systolic blood pressure (SBP), starting value” in test [3] (value from which SBP fell) came out at 190 mmHg.

B1: PPLLFAAL (Pro-Pro-Leu-Leu-Phe-Ala-Ala-Leu) (peptide)
peptide: PPLLFAAL
For B1, in test [4], the ACE-inhibitory activity (hydrolysis of hippuryl-L-histidyl-L-leucine to hippuric acid, RP-HPLC at 220 nm, 37 °C, pH 8.3, 0.3 M NaCl), IC50 of the synthetic peptide is 28 μmol·L^−1.

What is called IC50 is the point on the concentration scale where inhibition reaches its midpoint.
